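A five-concentration, 48-hour dose response in 96-well plates underlies each endpoint, interpolated linearly between surrounding concentrations. At the GI50, growth is halved.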 Activity calls are given as the source filed them. No stated cut-off is given here; in the data, active = GI50 up to about 1.1 µM and inactive = higher.
Legend:
Assay in all cases: DTP human tumour cell line panel, 48 h
[1] = test system: 786-0
[2] = test system: ACHN
[3] = test system: CAKI-1
[4] = test system: HOP-92
[5] = test system: HT-29
[6] = test system: IGROV-1
[7] = test system: KM12
[8] = test system: Malme-3M
[9] = test system: NCI-H23
[10] = test system: NCI-H522
[11] = test system: NCI/ADR-RES
[12] = test system: RPMI-8226
[13] = test system: RXF 393
[14] = test system: SF-539
[15] = test system: SK-MEL-28
[16] = test system: SNB-75
[17] = test system: SR
[18] = test system: SW-620
[19] = test system: UACC-257
[20] = test system: UO-31

Measured: GI50

CNc1ccc(Cl)cc1C(=O)N1CCC[C@H]1CO
inactive: [1] > 100 µM | [2] > 100 µM | [3] > 100 µM | [4] > 58.6 µM | [5] > 100 µM | [6] > 84.7 µM | [7] > 100 µM | [8] > 100 µM | [9] > 100 µM | [10] > 100 µM | [11] > 100 µM | [12] > 100 µM | [13] > 100 µM | [14] > 100 µM | [15] > 100 µM | [16] 99.3 µM | [17] 80.9 µM | [18] > 100 µM | [19] > 100 µM | [20] > 100 µM

CC(C)[C@@H]1ON1C(C)c1ccccc1 (stereo not given in full)
inactive: [1] > 100 µM | [2] > 100 µM | [3] 17.1 µM | [4] > 100 µM | [5] > 100 µM | [6] 70.6 µM | [7] > 100 µM | [8] > 100 µM | [9] > 100 µM | [10] > 100 µM | [11] > 100 µM | [12] > 100 µM | [13] > 100 µM | [14] > 100 µM | [15] > 100 µM | [16] > 100 µM | [17] > 100 µM | [18] > 100 µM | [19] > 100 µM | [20] > 100 µM

Oc1cccc2ccc(Br)nc12
inactive: [1] > 100 µM | [2] > 100 µM | [3] > 100 µM | [4] > 100 µM | [5] > 100 µM | [6] > 100 µM | [7] > 100 µM | [8] > 100 µM | [9] > 100 µM | [10] > 100 µM | [11] > 100 µM | [12] 97.9 µM | [13] > 100 µM | [14] > 100 µM | [15] > 100 µM | [16] > 100 µM | [17] 62.4 µM | [18] > 100 µM | [19] > 100 µM | [20] > 100 µM

CC(=O)Nc1ccc2cc(C)c(O)nc2n1
inactive: [1] 52.1 µM | [2] > 100 µM | [3] > 100 µM | [4] 54.2 µM | [5] > 100 µM | [6] > 100 µM | [7] > 100 µM | [8] > 100 µM | [9] > 100 µM | [10] > 100 µM | [11] 8.09 µM | [12] > 100 µM | [13] 25.9 µM | [14] > 100 µM | [15] > 100 µM | [16] 43.7 µM | [17] > 100 µM | [18] > 100 µM | [19] > 100 µM | [20] > 100 µM

From ChEMBL document CHEMBL1201862, “PubChem BioAssay data set” (2004)
